# Reference: patent publication US20190071416A1, “COMPOUNDS FOR TREATMENT OF CANCER AND EPIGENETICS” (Agency For Science, Technology and Research, priority 2015, published 2019)
# Biological target: T1, SMYD3 (Homo sapiens, UniProt Q9H7B4)
# T1 sequence (Q9H7B4 1-428): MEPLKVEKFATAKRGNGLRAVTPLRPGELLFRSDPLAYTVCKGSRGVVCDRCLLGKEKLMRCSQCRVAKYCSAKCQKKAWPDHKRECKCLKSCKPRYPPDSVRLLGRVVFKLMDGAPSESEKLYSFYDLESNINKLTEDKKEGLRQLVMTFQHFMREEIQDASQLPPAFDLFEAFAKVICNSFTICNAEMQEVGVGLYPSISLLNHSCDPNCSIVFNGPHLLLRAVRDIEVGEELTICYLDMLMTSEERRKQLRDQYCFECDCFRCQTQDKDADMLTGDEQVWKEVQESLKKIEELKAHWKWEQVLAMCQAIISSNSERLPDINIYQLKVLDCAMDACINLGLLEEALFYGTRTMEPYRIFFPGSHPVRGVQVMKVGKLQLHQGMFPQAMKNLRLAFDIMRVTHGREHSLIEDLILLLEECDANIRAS
# Assay: SMYD3 biochemical assay (MTase-Glo, MAP3K2 peptide substrate)
# Settings: Table 3; MTase assay, MAP3K2 peptide substrate; read-out: IC50
# How it was run: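 Methylation of MAP3K2 peptide (10 µM final) with SAM (1.0 µM final) by SMYD3, 30 min at room temperature. SAH formed was enzymatically converted to ATP and detected as luminescence with MTase-Glo reagents; IC50 by non-linear regression.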
row,Structure (SMILES),IC50 [µM]
1,"CCCOC(=O)N1CCN(C(=O)c2ccc3c(Cl)cc(-c4ccc5[nH]c(O)nc5c4)nc3c2)CC1 [B184, Propyl 4-(4-chloro-2-(2-hydroxy-1H-benzo[d]imidazol-5-yl)quinoline-7-carbonyl)piperazine-1-carboxylate]",0.1
2,"CCCOC(=O)N1CCN(C(=O)c2ccc3c(Cl)cc(-c4cnc(N)nc4)nc3c2)CC1 [B185, Propyl 4-(2-(2-aminopyrimidin-5-yl)-4-chloroquinoline-7-carbonyl)piperazine-1-carboxylate]",0.87
3,"CCCOC(=O)N1CCN(C(=O)c2ccc3c(Cl)cc(-c4cc(C)c5[nH]ncc5c4)nc3c2)CC1 [B186, Propyl 4-(4-chloro-2-(7-methyl-1H-indazol-5-yl)quinoline-7-carbonyl)piperazine-1-carboxylate]",0.14
4,"CCCOC(=O)N1CCN(C(=O)c2ccc3c(Cl)cc(-c4cccc5[nH]cnc45)nc3c2)CC1 [B187, Propyl 4-(2-(1H-benzo[d]imidazol-4-yl)-4-chloroquinoline-7-carbonyl)piperazine-1-carboxylate]",0.14
5,"CCCOC(=O)N1CCN(C(=O)c2ccc3c(Cl)cc(-c4cnc5cccnc5c4)nc3c2)C[C@@H]1C [B188, Propyl (S)-4-(4-chloro-2-(1,5-naphthyridin-3-yl)quinoline-7-carbonyl)-2-methylpiperazine-1-carboxylate]",0.89
6,"CCCOC(=O)N1CCN(C(=O)c2ccc3c(Cl)cc(-c4ccc(C(=O)NC)cc4)nc3c2)C[C@@H]1C [B189, Propyl (S)-4-(4-chloro-2-(4-(methylcarbamoyl)phenyl)quinoline-7-carbonyl)-2-methylpiperazine-1-carboxylate]",0.069
7,"CCCOC(=O)N1CCN(C(=O)c2ccc3c(Cl)cc(-c4ccc(C(=O)NC)cc4)nc3c2)[C@@H](C)C1 [B190, Propyl (S)-4-(4-chloro-2-(4-(methylcarbamoyl)phenyl)quinoline-7-carbonyl)-3-methylpiperazine-1-carboxylate]",0.13
8,"CCCOC(=O)N1CCN(C(=O)c2ccc3c(Cl)cc(-c4ccc(O)c(F)c4)nc3c2)CC1 [B191, Propyl 4-(4-chloro-2-(3-fluoro-4-hydroxyphenyl)quinoline-7-carbonyl)piperazine-1-carboxylate]",0.14
9,"CCCOC(=O)N1CCN(C(=O)c2ccc3c(Cl)cc(-c4ccc(O)c(F)c4)nc3c2)C[C@@H]1C [B192, Propyl (S)-4-(4-chloro-2-(3-fluoro-4-hydroxyphenyl)quinoline-7-carbonyl)-2-methylpiperazine-1-carboxylate]",0.075
10,"CCCOC(=O)N1CCN(C(=O)c2ccc3c(Cl)cc(-c4ccn(C)c4)nc3c2)C[C@@H]1C [B193, Propyl (S)-4-(4-chloro-2-(1-methyl-1H-pyrrol-3-yl)quinoline-7-carbonyl)-2-methylpiperazine-1-carboxylate]",0.06
11,"CCCOC(=O)N1CCN(C(=O)c2ccc3c(Cl)cc(-c4ccn(C)c4)nc3c2)[C@@H](C)C1 [B194, Propyl (S)-4-(4-chloro-2-(1-methyl-1H-pyrrol-3-yl)quinoline-7-carbonyl)-3-methylpiperazine-1-carboxylate]",0.13
12,"CCCOC(=O)N1CCN(C(=O)c2ccc3c(Cl)cc(-c4ccc5cnn(C)c5c4)nc3c2)CC1 [B195, Propyl 4-(4-chloro-2-(1-methyl-1H-indazol-6-yl)quinoline-7-carbonyl)piperazine-1-carboxylate]",0.25
13,"CCCOC(=O)N1CCN(C(=O)c2ccc3c(Cl)cc(-c4ccc5cn(C)nc5c4)nc3c2)CC1 [B196, Propyl 4-(4-chloro-2-(2-methyl-2H-indazol-6-yl)quinoline-7-carbonyl)piperazine-1-carboxylate]",0.056
14,"CCCOC(=O)N1CCN(C(=O)c2ccc3c(Cl)cc(-c4ccc5[nH]nc(C)c5c4)nc3c2)C[C@H]1C [B197, Propyl (R)-4-(4-chloro-2-(3-methyl-1H-indazol-5-yl)quinoline-7-carbonyl)-2-methylpiperazine-1-carboxylate]",0.1
15,"CCCOC(=O)N1CCN(C(=O)c2ccc3c(Cl)cc(-c4ccc5[nH]nc(C)c5c4)nc3c2)[C@@H](C)C1 [B198, Propyl (S)-4-(4-chloro-2-(3-methyl-1H-indazol-5-yl)quinoline-7-carbonyl)-3-methylpiperazine-1-carboxylate]",0.2
16,"CCCOC(=O)N1CCN(C(=O)c2ccc3c(Cl)cc(-c4cnc5[nH]nc(C)c5c4)nc3c2)C[C@H]1C [B199, Propyl (R)-4-(4-chloro-2-(3-methyl-1H-pyrazolo[3,4-b]pyridin-5-yl)quinoline-7-carbonyl)-2-methylpiperazine-1-carboxylate]",0.35
17,"CCCOC(=O)N1CCN(C(=O)c2ccc3c(Cl)cc(-c4cnc5[nH]nc(C)c5c4)nc3c2)[C@@H](C)C1 [B200, Propyl (S)-4-(4-chloro-2-(3-methyl-1H-pyrazolo[3,4-b]pyridin-5-yl)quinoline-7-carbonyl)-3-methylpiperazine-1-carboxylate]",1.03
18,"CCCOC(=O)N1CCN(C(=O)c2ccc3c(Cl)cc(-c4cc(F)c(O)c(F)c4)nc3c2)CC1 [B201, Propyl 4-(4-chloro-2-(3,5-difluoro-4-hydroxyphenyl)quinoline-7-carbonyl)piperazine-1-carboxylate]",0.18
19,"CCCOC(=O)N1CCN(C(=O)c2ccc3c(Cl)cc(-c4ccc(O)c(C)c4)nc3c2)CC1 [B202, Propyl 4-(4-chloro-2-(4-hydroxy-3-methylphenyl)quinoline-7-carbonyl)piperazine-1-carboxylate]",0.12
20,"CCCOC(=O)N1CCN(C(=O)c2ccc3c(Cl)cc(-c4ccc5occc5c4)nc3c2)CC1 [B203, Propyl 4-(2-(benzofuran-5-yl)-4-chloroquinoline-7-carbonyl)piperazine-1-carboxylate]",0.46
21,"CCCOC(=O)N1CCN(C(=O)c2ccc3c(Cl)cc(-c4ccc(C(=O)NC)c(F)c4)nc3c2)CC1 [B204, Propyl 4-(4-chloro-2-(3-fluoro-4-(methylcarbamoyl)phenyl)quinoline-7-carbonyl)piperazine-1-carboxylate]",1.01
22,"CCCOC(=O)N1CCN(C(=O)c2ccc3c(Cl)cc(-c4ccc(C(=O)NC5CC5)c(F)c4)nc3c2)CC1 [B205, Propyl 4-(4-chloro-2-(4-(cyclopropylcarbamoyl)-3-fluorophenyl)quinoline-7-carbonyl)piperazine-1-carboxylate]",0.89
23,"CCCOC(=O)N1CCN(C(=O)c2ccc3c(Cl)cc(-c4ccc(C(=O)NCC)cc4)nc3c2)CC1 [B206, Propyl 4-(4-chloro-2-(4-(ethylcarbamoyl)phenyl)quinoline-7-carbonyl)piperazine-1-carboxylate]",0.6
24,"CCCOC(=O)N1CCN(C(=O)c2ccc3c(Cl)cc(-c4ccc5ncn(C)c5c4)nc3c2)CC1 [B207, Propyl 4-(4-chloro-2-(1-methyl-1H-benzo[d]imidazol-6-yl)quinoline-7-carbonyl)piperazine-1-carboxylate]",0.06
25,"CCCOC(=O)N1CCN(C(=O)c2ccc3c(Cl)cc(-c4ccc5nc(C)sc5c4)nc3c2)CC1 [B208, Propyl 4-(4-chloro-2-(2-methylbenzo[d]thiazol-6-yl)quinoline-7-carbonyl)piperazine-1-carboxylate]",0.38
26,"CCCOC(=O)N1CCN(C(=O)c2ccc3c(Cl)cc(-c4cc[nH]c4)nc3c2)CC1 [B209, Propyl 4-(4-chloro-2-(1H-pyrrol-3-yl)quinoline-7-carbonyl)piperazine-1-carboxylate]",0.19
